The test system of one data set is S. pneumoniae DAW27. Briefly: Minimal inhibitory concentration, microbroth dilution. It is filed as cell-based. To be noted: Streptococcus pneumoniae, DAW27, read-out: Minimal Inhibitory Concentration S. pneumoniae DAW27. In outline: (§1)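 MIC is recorded by eye as the lowest drug concentration that stops bacterial growth. Compound is serially diluted twofold in broth, starting at 200 μM final, and bacteria are added at roughly 10^5 cfu/mL. Incubation runs overnight at 37 °C under aerobic conditions, per CLSI guidance.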

For another data set, the system named is E. faecails ATCC 33186. The data set is described as above. In kind it is cell-based. To be noted: Enterococcus faecalis, ATCC33186, read-out: Minimal Inhibitory Concentration E. faecails ATCC 33186. In a few lines:
as §1

A short description of data set [1]: Cytotoxicity assay, CellTiter-Glo cell viability. In kind it is cell-based. Conditions: African green monkey; Vero cells, 72 hours; read-out: Cytotoxicity IC50. In a few lines: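 Vero cells seeded overnight at 37 °C in DMEM with 10% FBS, then exposed to serial dilutions of compound for 72 h. Viability read by CellTiter-Glo luminescence; IC50 from duplicates, given as the range of two independent experiments.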
For orientation: Cellular ATP, detected with luciferase, serves as a proxy for viable cell number.

The target in a further data set is T1, S. aureus ClpP (Sa-ClpP) (Staphylococcus aureus, UniProt Q2G036).
T1 construct: made in house; host or cells: E. coli BL21 (DE3)
T1 sequence (Q2G036 whole entry): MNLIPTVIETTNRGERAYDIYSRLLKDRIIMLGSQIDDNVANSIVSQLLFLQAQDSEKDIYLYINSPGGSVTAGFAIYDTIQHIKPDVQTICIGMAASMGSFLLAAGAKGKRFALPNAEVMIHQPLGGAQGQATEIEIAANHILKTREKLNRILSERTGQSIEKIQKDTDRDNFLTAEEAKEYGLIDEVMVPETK
Briefly: ClpP activation, casein-BODIPY digestion assay (first described method). Conditions: first described ClpP activation assay (**); 10 μM saClpP, 25 μg/ml BODIPY FL casein, 37° C.; read-out: ClpP Activation EC50. In kind it is biochemical. In outline:
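Purified E. coli-expressed Sa-ClpP (10 μM) with 25 μg/ml BODIPY FL casein and 0-100 μM compound in 50 mM Tris pH 8, 200 mM KCl, 1 mM TCEP at 37° C. Fluorescence (ex 485/em 528 nm) read every 5 min over 45 min; velocities fit to dose-response for EC50 of 50% activation, in triplicate.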

The subject of the next data set is S. pyogenes ATCC 700294. As to the kind of experiment: Minimal inhibitory concentration, microbroth dilution. In kind it is cell-based. Conditions: Streptococcus pyogenes, ATCC700294, read-out: Minimal Inhibitory Concentration S. pyogenes ATCC 700294. In a few lines:
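Twofold serial dilutions in broth per CLSI M7-A7 microbroth dilution, incubated aerobically overnight at 37° C. MIC read visually as lowest concentration preventing bacterial growth.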
(Dilution methods test growth across graded concentrations, often in twofold steps.)

Our source for the MIC, IC50 and EC50 values is patent US9879050B2, “Substituted urea depsipeptide analogs as activators of the CLPP endopeptidase” (priority 2013, dated 2018).

The structures appear in SMILES notation. In brackets after ≈: the same amount, converted by molar mass. A value given as a limit tells only on which side of the number the result lay.

As usually defined, the IC50 is the point on the concentration scale where inhibition reaches its midpoint. By EC50 is commonly meant the concentration that produces a half-maximal response.

Turning to `COc1ccc(NC(=O)N[C@@H](Cc2ccccc2)C(=O)N[C@H]2COC(=O)[C@@H]3C[C@@H](C)CN3C(=O)[C@H](C)NC(=O)[C@@H]3CCCCN3C(=O)[C@@H]3CCCN3C2=O)cc1` [Compound 6, (S)—N-((2R,6S,8aS,14aS,20S,23aS)-2,6-Dimethyl-5,8,14,19,23-Pentaoxooctadecahydro-1H,5H,14H,19H-Pyrido[2,1-1]Dipyrrolo[2,1-C:2′,1′-L][1]Oxa[4,7,10,13]Tetraazacyclohexadecin-20-Yl)-2-(3-(4-Methoxyphenyl)Ureido)-3-Phenylpropanamide], the MIC in the data set on S. pneumoniae DAW27 was 0.2 µM (≈ 0.155 µg/mL); in the data set with E. faecails ATCC 33186 it was 0.78 µM (≈ 0.604 µg/mL); in the data set on S. pyogenes ATCC 700294 it was 0.39 µM (≈ 0.302 µg/mL). In addition, in data set [1], the 50% inhibitory concentration (IC50) at 72 h is more than 100 µM. For the same compound, on S. aureus ClpP (Sa-ClpP), the half-maximal effective concentration (EC50) was 2000 ± 100 nM.

As to `C[C@@H]1C[C@H]2C(=O)OC[C@H](NC(=O)[C@H](Cc3ccccc3)NC(=O)Nc3ccccc3Cl)C(=O)N3CCC[C@H]3C(=O)N3CCCC[C@H]3C(=O)N[C@@H](C)C(=O)N2C1` [Compound 7, (S)-2-(3-(2-Chlorophenyl)Ureido)-N-((2R,6S,8aS,14aS,20S,23aS)-2,6-Dimethyl-5,8,14,19,23-Pentaoxooctadecahydro-1H,5H,14H,19H-Pyrido[2,1-I]Dipyrrolo[2,1-C:2′,1′-L][1]Oxa[4,7,10,13]Tetraazacyclohexadecin-20-Yl)-3-Phenylpropanamide], the results for the MIC in the data set with S. pneumoniae DAW27, with E. faecails ATCC 33186 and in the data set with S. pyogenes ATCC 700294 were 0.78 µM (≈ 0.607 µg/mL), 3.13 µM (≈ 2.44 µg/mL) and 3.13 µM (≈ 2.44 µg/mL), respectively. In addition, the 50% inhibitory concentration (IC50) at 72 h in data set [1] is more than 100 µM. Also, the EC50 on S. aureus ClpP (Sa-ClpP) came to 34600 ± 6800 nM.

For `C[C@@H]1C[C@H]2C(=O)OC[C@H](NC(=O)[C@H](Cc3ccccc3)NC(=O)Nc3cccc(Cl)c3)C(=O)N3CCC[C@H]3C(=O)N3CCCC[C@H]3C(=O)N[C@@H](C)C(=O)N2C1` [Compound 9, (S)-2-(3-(3-Chlorophenyl)Ureido)-N-((2R,6S,8aS,14aS,20S,23aS)-2,6-Dimethyl-5,8,14,19,23-Pentaoxooctadecahydro-1H,5H,14H,19H-Pyrido[2,1-I]Dipyrrolo[2,1-C:2′,1′-L][1]Oxa[4,7,10,13]Tetraazacyclohexadecin-20-Yl)-3-Phenylpropanamide], the MIC in the data set on S. pneumoniae DAW27 came to 0.78 µM (≈ 0.607 µg/mL); in the data set on E. faecails ATCC 33186, 1.56 µM (≈ 1.21 µg/mL); with S. pyogenes ATCC 700294, 1.56 µM (≈ 1.21 µg/mL). In addition, the IC50 at 72 h in data set [1] was found to be 89 ± 5 µM. For the same compound, on S. aureus ClpP (Sa-ClpP), the concentration for a half-maximal effect (EC50) worked out at 1000 ± 100 nM.

`C[C@@H]1C[C@H]2C(=O)OC[C@H](NC(=O)[C@H](Cc3ccccc3)NC(=O)Nc3ccc4c(c3)CCN4C)C(=O)N3CCC[C@H]3C(=O)N3CCCC[C@H]3C(=O)N[C@@H](C)C(=O)N2C1` [Compound 11, (S)—N-((2R,6S,8aS,14aS,20S,23aS)-2,6-Dimethyl-5,8,14,19,23-Pentaoxooctadecahydro-1H,5H,14H,19H-Pyrido[2,1-I]Dipyrrolo[2,1-C:2′,1′-L][1]Oxa[4,7,10,13]Tetraazacyclohexadecin-20-Yl)-2-(3-(1-Methylindolin-5-Yl)Ureido)-3-Phenylpropanamide]: the MIC with S. pneumoniae DAW27 was found to be 0.3 µM (≈ 0.24 µg/mL); in the data set with E. faecails ATCC 33186, 0.6 µM (≈ 0.479 µg/mL); with S. pyogenes ATCC 700294, 0.6 µM (≈ 0.479 µg/mL). Further, the IC50 at 72 h in data set [1] worked out at 76 ± 10.6 µM. Besides, the half-maximal effective concentration (EC50) on S. aureus ClpP (Sa-ClpP) stood at 2300 ± 300 nM.
